One assay concerns MV4;11 cells. The experiment in a line: Cell viability assay (CellTiter-Glo) in MV4;11 cells, alone or with gilteritinib. The class given is cell-based. The note with it: Homo sapiens, read-out: MV4.
The next assay concerns MOLM-13 cells. The experiment in a line: Cell viability assay (CellTiter-Glo) in MOLM-13 cells, alone or with gilteritinib. Particulars: Homo sapiens. The class given is cell-based.
Setting [1] is: MV4-11, 72 h, MV4;11 cells, compound alone (without gilteritinib), three days, CellTiter-Glo, 11 IC50.
Where [2] appears, read: MV4-11, 72 h, MV4;11 cells, compound with gilteritinib 10 nM, three days, CellTiter-Glo, 11 IC50 gilteritinib.
Setting [3] is: MOLM-13, 72 h, MOLM-13 cells, compound alone (without gilteritinib), three days, CellTiter-Glo, read-out: MOLM-13 IC50.
Setting [4] is: MOLM-13, 72 h, MOLM-13 cells, compound with gilteritinib 20 nM, three days, CellTiter-Glo, read-out: MOLM-13 IC50 gilteritinib.
The mark [5] stands for this setting: 72 h, MV4;11 cells, compound alone (without gilteritinib), three days, CellTiter-Glo, 11 IC50.
Where [6] appears, read: 72 h, MV4;11 cells, compound with gilteritinib 10 nM, three days, CellTiter-Glo, 11 IC50 gilteritinib.
Where [7] appears, read: 72 h, MOLM-13 cells, compound alone (without gilteritinib), three days, CellTiter-Glo, read-out: MOLM-13 IC50.
[8] abbreviates: 72 h, MOLM-13 cells, compound with gilteritinib 20 nM, three days, CellTiter-Glo, read-out: MOLM-13 IC50 gilteritinib.

pIC50: −log10 of the molar value. Like-named read-outs stand apart in the source and are kept apart here. A value given as a limit tells only on which side of the number the result lay.

`COc1cccnc1-c1cnn([C@H]2C[C@H](CCCNc3ccc4c(c3)C(=O)N(C3CCC(=O)NC3=O)C4=O)C2)c1` (stereo partly drawn) [GS-494, 2-(2,6-Dioxopiperidin-3-yl)-5-((3-(trans-3-(4-(3-methoxypyridin-2-yl)-1H-pyrazol-1-yl)cyclobutyl)propyl)amino)isoindoline-1,3-dione]: the pIC50 was 7.00 to 8.00 in the assay with MV4;11 cells (setting [1]), > 8.00 in the assay with MV4;11 cells (setting [2]), 7.00 to 8.00 in the assay on MOLM-13 cells (setting [3]) and > 8.00 with MOLM-13 cells (setting [4]).
Consider `O=C1CCC(N2Cc3cc(NC(=O)Cc4cccc(N5CCC(n6cc(-c7cnc8ccccc8n7)cn6)CC5)c4)ccc3C2=O)C(=O)N1` (centres unmarked) [GS-495, N-(2-(2,6-dioxopiperidin-3-yl)-1-oxoisoindolin-5-yl)-2-(3-(4-(4-(quinoxalin-2-yl)-1H-pyrazol-1-yl)piperidin-1-yl)phenyl)acetamide], for which the pIC50 with MV4;11 cells (setting [1]), with MV4;11 cells (setting [2]), in the assay on MOLM-13 cells (setting [3]) and in the assay on MOLM-13 cells (setting [4]) was > 8.00 in each case.
For the molecule `O=C1CCC(N2C(=O)c3ccc(NCCCCCCn4cc(-c5ccccc5)cn4)cc3C2=O)C(=O)N1` (centres unmarked) [GS-496, 2-(2,6-dioxopiperidin-3-yl)-5-((6-(4-phenyl-1H-pyrazol-1-yl)hexyl)amino)isoindoline-1,3-dione], the pIC50 is 6.00 to 7.00 with MV4;11 cells (setting [5]), 7.00 to 8.00 with MV4;11 cells (setting [6]), 6.00 to 7.00 with MOLM-13 cells (setting [7]) and 7.00 to 8.00 with MOLM-13 cells (setting [8]).
For the molecule `Cc1cccc(-c2cnn(CCCCCCNc3ccc4c(c3)C(=O)N(C3CCC(=O)NC3=O)C4=O)c2)c1` (centres unmarked) [GS-497, 2-(2,6-dioxopiperidin-3-yl)-5-((6-(4-(m-tolyl)-1H-pyrazol-1-yl)hexyl)amino)isoindoline-1,3-dione], the pIC50 is 7.00 to 8.00 in the assay on MV4;11 cells (setting [1]), > 8.00 with MV4;11 cells (setting [2]), 6.00 to 7.00 with MOLM-13 cells (setting [3]) and > 8.00 in the assay on MOLM-13 cells (setting [4]).
Take `Cc1cccc(-c2cnn(CCCCCCNc3ccc4c(c3)C(=O)N(C3CCC(=O)NC3=O)C4=O)c2)n1` (centres unmarked) [GS-498, 2-(2,6-dioxopiperidin-3-yl)-5-((6-(4-(6-methylpyridin-2-yl)-1H-pyrazol-1-yl)hexyl)amino)isoindoline-1,3-dione]: the pIC50 was 6.00 to 7.00 in the assay with MV4;11 cells (setting [1]), 7.00 to 8.00 in the assay on MV4;11 cells (setting [2]), 6.00 to 7.00 in the assay with MOLM-13 cells (setting [3]) and 7.00 to 8.00 in the assay with MOLM-13 cells (setting [4]).
Take `Cc1cncc(-c2cnn(CCCCCCNc3ccc4c(c3)C(=O)N(C3CCC(=O)NC3=O)C4=O)c2)c1` (centres unmarked) [GS-499, 2-(2,6-dioxopiperidin-3-yl)-5-((6-(4-(5-methylpyridin-3-yl)-1H-pyrazol-1-yl)hexyl)amino)isoindoline-1,3-dione]: the pIC50 in the assay with MV4;11 cells (setting [1]) was < 6.00; in the assay with MV4;11 cells (setting [2]), 6.00 to 7.00; in the assay with MOLM-13 cells (setting [3]) it was < 6.00; with MOLM-13 cells (setting [4]) it was 6.00 to 7.00.
Regarding `O=C1CCC(N2Cc3cc(NC(=O)C(F)(F)c4cccc(N5CCC(n6cc(-c7cnc8ccccc8n7)cn6)CC5)c4)ccc3C2=O)C(=O)N1` (centres unmarked) [GS-500, N-(2-(2,6-dioxopiperidin-3-yl)-1-oxoisoindolin-5-yl)-2,2-difluoro-2-(3-(4-(4-(quinoxalin-2-yl)-1H-pyrazol-1-yl)piperidin-1-yl)phenyl)acetamide], the pIC50 in the assay on MV4;11 cells (setting [1]), in the assay on MV4;11 cells (setting [2]), in the assay on MOLM-13 cells (setting [3]) and in the assay with MOLM-13 cells (setting [4]) was > 8.00 each time.
`O=C1CCC(N2Cc3cc(NC(=O)Cc4cccc(N5CCC(c6ccccc6)CC5)c4)ccc3C2=O)C(=O)N1` (centres unmarked) [GS-501, N-(2-(2,6-Dioxopiperidin-3-yl)-1-oxoisoindolin-5-yl)-2-(3-(4-phenylpiperidin-1-yl)phenyl)acetamide]: the pIC50 with MV4;11 cells (setting [5]), in the assay with MV4;11 cells (setting [6]), in the assay on MOLM-13 cells (setting [7]) and in the assay with MOLM-13 cells (setting [8]) was > 8.00 in each case.
Regarding `Cc1nc2ccccc2nc1-c1cnn(CCCCCCNc2ccc3c(c2)C(=O)N(C2CCC(=O)NC2=O)C3=O)c1` (centres unmarked) [GS-502, 2-(2,6-Dioxopiperidin-3-yl)-5-((6-(4-(3-methylquinoxalin-2-yl)-1H-pyrazol-1-yl)hexyl)amino)isoindoline-1,3-dionee], the pIC50 with MV4;11 cells (setting [1]) was 6.00 to 7.00; in the assay on MV4;11 cells (setting [2]) it was 7.00 to 8.00; in the assay on MOLM-13 cells (setting [3]), 6.00 to 7.00; with MOLM-13 cells (setting [4]) it was 7.00 to 8.00.
With `O=C1CCC(N2C(=O)c3ccc(NCCCCCCn4cc(-c5cnc6ccc(Br)cc6n5)cn4)cc3C2=O)C(=O)N1` (centres unmarked) [GS-503, 5-((6-(4-(7-Bromoquinoxalin-2-yl)-1H-pyrazol-1-yl)hexyl)amino)-2-(2,6-dioxopiperidin-3-yl)isoindoline-1,3-dione], the pIC50 in the assay on MV4;11 cells (setting [1]) is 7.00 to 8.00; in the assay on MV4;11 cells (setting [2]), > 8.00; in the assay on MOLM-13 cells (setting [3]), 6.00 to 7.00; in the assay on MOLM-13 cells (setting [4]), 7.00 to 8.00.
As to `O=C1CCC(N2C(=O)c3ccc(NCCCc4cccc(N5CCC(c6ccccc6)CC5)c4)cc3C2=O)C(=O)N1` (centres unmarked) [GS-504, 2-(2,6-Dioxopiperidin-3-yl)-5-((3-(3-(4-phenylpiperidin-1-yl)phenyl)propyl)amino)isoindoline-1,3-dione], the pIC50 is 6.00 to 7.00 with MV4;11 cells (setting [5]), 7.00 to 8.00 with MV4;11 cells (setting [6]), 6.00 to 7.00 in the assay with MOLM-13 cells (setting [7]) and 7.00 to 8.00 in the assay on MOLM-13 cells (setting [8]).
In the case of `O=C1CCC(N2C(=O)c3ccc(NCCCc4cc(F)cc(N5CCC(c6ccccc6)CC5)c4)cc3C2=O)C(=O)N1` (centres unmarked) [GS-505, 2-(2,6-Dioxopiperidin-3-yl)-5-((3-(3-fluoro-5-(4-phenylpiperidin-1-yl)phenyl)propyl)amino)isoindoline-1,3-dione], the pIC50 in the assay with MV4;11 cells (setting [5]) was 7.00 to 8.00; in the assay with MV4;11 cells (setting [6]), 7.00 to 8.00; in the assay on MOLM-13 cells (setting [7]) it was 7.00 to 8.00; in the assay on MOLM-13 cells (setting [8]), > 8.00.
For `O=C1CCC(N2C(=O)c3ccc(NCCCc4ccc(F)c(N5CCC(c6ccccc6)CC5)c4)cc3C2=O)C(=O)N1` (centres unmarked) [GS-506, 2-(2,6-Dioxopiperidin-3-yl)-5-((3-(4-fluoro-3-(4-phenylpiperidin-1-yl)phenyl)propyl)amino)isoindoline-1,3-dione], the pIC50 is < 6.00 in the assay with MV4;11 cells (setting [5]), < 6.00 in the assay with MV4;11 cells (setting [6]), < 6.00 in the assay with MOLM-13 cells (setting [7]) and 6.00 to 7.00 in the assay with MOLM-13 cells (setting [8]).
On to `O=C1CCC(N2C(=O)c3ccc(NCCCc4cccc(N5CCC(c6ccccc6)CC5)c4F)cc3C2=O)C(=O)N1` (centres unmarked) [GS-507, 2-(2,6-Dioxopiperidin-3-yl)-5-((3-(2-fluoro-3-(4-phenylpiperidin-1-yl)phenyl)propyl)amino)isoindoline-1,3-dione], for which the pIC50 was < 6.00 with MV4;11 cells (setting [5]), 6.00 to 7.00 in the assay with MV4;11 cells (setting [6]), < 6.00 in the assay on MOLM-13 cells (setting [7]) and 7.00 to 8.00 in the assay on MOLM-13 cells (setting [8]).
`O=C1CCC(N2Cc3c(CNC(=O)c4cccc(N5CCC(n6cc(-c7cnc8ccccc8n7)cn6)CC5)c4)cccc3C2=O)C(=O)N1` (centres unmarked) [GS-509, N-((2-(2,6-Dioxopiperidin-3-yl)-1-oxoisoindolin-4-yl)methyl)-3-(4-(4-(quinoxalin-2-yl)-1H-pyrazol-1-yl)piperidin-1-yl)benzamide]: the pIC50 in the assay on MV4;11 cells (MV4-11, 72 h, 11 IC50) is > 8.00; in the assay on MV4;11 cells (MV4-11, 72 h, 11 IC50 gilteritinib), > 8.00; in the assay with MOLM-13 cells (MOLM-13, 72 h, read-out: MOLM-13 IC50), > 8.00; in the assay on MOLM-13 cells (MOLM-13, 72 h, read-out: MOLM-13 IC50 gilteritinib), > 8.00.
For the molecule `Cc1nn(CCCCCCNc2ccc3c(c2)C(=O)N(C2CCC(=O)NC2=O)C3=O)c(C)c1-c1cnc2ccccc2n1` (centres unmarked) [GS-510, 5-((6-(3,5-Dimethyl-4-(quinoxalin-2-yl)-1H-pyrazol-1-yl)hexyl)amino)-2-(2,6-dioxopiperidin-3-yl)isoindoline-1,3-dione], the pIC50 is 6.00 to 7.00 with MV4;11 cells (setting [1]), > 8.00 with MV4;11 cells (setting [2]), < 6.00 with MOLM-13 cells (setting [3]) and > 8.00 with MOLM-13 cells (setting [4]).
Regarding `Cc1cccc2ncc(-c3cnn(CCCCCCNc4ccc5c(c4)C(=O)N(C4CCC(=O)NC4=O)C5=O)c3)nc12` (centres unmarked) [GS-511, 2-(2,6-Dioxopiperidin-3-yl)-5-((6-(4-(8-methylquinoxalin-2-yl)-1H-pyrazol-1-yl)hexyl)amino)isoindoline-1,3-dione], the pIC50 was 6.00 to 7.00 in the assay with MV4;11 cells (setting [1]), 7.00 to 8.00 in the assay with MV4;11 cells (setting [2]), 6.00 to 7.00 in the assay with MOLM-13 cells (setting [3]) and > 8.00 with MOLM-13 cells (setting [4]).
With `Cc1cccc2nc(-c3cnn(CCCCCCNc4ccc5c(c4)C(=O)N(C4CCC(=O)NC4=O)C5=O)c3)cnc12` (centres unmarked) [GS-512, 2-(2,6-dioxopiperidin-3-yl)-5-((6-(4-(5-methylquinoxalin-2-yl)-1H-pyrazol-1-yl)hexyl)amino)isoindoline-1,3-dione], the pIC50 is 7.00 to 8.00 in the assay with MV4;11 cells (setting [1]), 7.00 to 8.00 in the assay with MV4;11 cells (setting [2]), 7.00 to 8.00 in the assay on MOLM-13 cells (setting [3]) and > 8.00 in the assay with MOLM-13 cells (setting [4]).
For `O=C1CCC(N2Cc3cc(NC(=O)c4cccc(N5CCC(n6cc(-c7cnc8ccccc8n7)cn6)CC5)c4)ccc3C2=O)C(=O)N1` (centres unmarked) [GS-513, N-(2-(2,6-Dioxopiperidin-3-yl)-1-oxoisoindolin-5-yl)-3-(4-(4-(quinoxalin-2-yl)-1H-pyrazol-1-yl)piperidin-1-yl)benzamide], the pIC50 with MV4;11 cells (setting [1]), with MV4;11 cells (setting [2]), in the assay on MOLM-13 cells (setting [3]) and in the assay on MOLM-13 cells (setting [4]) was > 8.00 each time.
For the molecule `O=C1CCC(N2Cc3cc(CNC(=O)Nc4cccc(N5CCC(c6ccccc6)CC5)c4)ccc3C2=O)C(=O)N1` (centres unmarked) [GS-514, 1-((2-(2,6-Dioxopiperidin-3-yl)-1-oxoisoindolin-5-yl)methyl)-3-(3-(4-phenylpiperidin-1-yl)phenyl)urea], the pIC50 in the assay on MV4;11 cells (setting [5]), with MV4;11 cells (setting [6]), in the assay with MOLM-13 cells (setting [7]) and in the assay with MOLM-13 cells (setting [8]) was > 8.00 each time.

(Values after patent US20240050428A1 (Cullgen (Shanghai), Inc., priority 2020, published 2024).)
